Test results taken from patent publication US20160046616A1, “NRF2 SMALL MOLECULE INHIBITORS FOR CANCER THERAPY” (THE JOHNS HOPKINS UNIVERSITY, priority 2013, published 2016).

How the values were obtained:
Assay type in all cases: cell-based
[1] = tested on: A549 NRF2-ARE-Fluc stable cell line; assay: A549 Nrf2 assay: NRF2-ARE firefly luciferase reporter gene assay; conditions: Homo sapiens, read-out: Potency of inhibition, A549
Summary of the method: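 A549 cells (Keap1 loss-of-function, constitutive NRF2) stably carrying ARE-driven firefly luciferase; compound treatment 18–24 h at 37 °C, 0.46% DMSO final.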

[2] = tested on: H838 NRF2-ARE-Fluc stable cell line; assay: H838 Nrf2 assay: NRF2-ARE firefly luciferase reporter gene assay; conditions: Homo sapiens, NCI-H838, read-out: Potency of inhibition, H838
Source text: H838 is a NSCLC cell line with LOF Keap1 activity and constitutive translocation of NRF2 into the nucleus. A firefly luciferase reporter construct driven by a minimal promoter of NRF2-specific ARE is stably expressed in the H838 cells. This cell line was used as a confirmation assay to make sure hits identified from primary screening and that passed counterscreen assays worked in different cell types with a constitutively active NRF2 pathway (deficiency in Keap1).
This assay was very similar to the primary assay except that the cell line was changed. […] The final concentration of DMSO was maintained at 0.46%. Control compounds Budesonide and Staurosporine were both added at a concentration of 2 mM and Budesonide was also added as a 1:10 titration, starting at 200 μM, to achieve dose-response. After an 18-24 hour incubation at 37° C., 95% humidity, and 5% CO2, 1 μL of 5× CellTiter-Fluor non-lytic cell viability assay reagent (Promega, Madison Wis.) was added into the each well of the plates. The plates were then incubated for 30 minutes at room temperature before they were read on a ViewLux plate imager (Perkin Elmer, Waltham Mass.) using an excitation wavelength of 405 nm and an emission wavelength of 525 nm.
Representative compounds were assayed to assess the potency of inhibition in an A549 NRF2-ARE-Fluc stable cell line (A549 Nrf2 assay), in an H838 NRF2-ARE-Fluc stable cell line (H838 Nrf2 assay), and in an H1437 NRF2-ARE-Fluc stable cell line (H1437 Nrf2 assay) (see Table 3).

[3] = tested on: H1437 NRF2-ARE-Fluc stable cell line; assay: H1437 Nrf2 assay: NRF2-ARE firefly luciferase reporter gene assay; conditions: Homo sapiens, NCI-H1437, H1437 NRF2-ARE-Fluc stable cell line; read-out: Potency of inhibition, H1437

COc1ccccc1C(=O)Nc1nc(-c2ccc(S(=O)(=O)N3CCOCC3)cc2)cs1 [Compound 47]
IC50 [1]: < 5 µM | IC50 [2]: < 5 µM | IC50 [3]: < 5 µM

O=C(Nc1ccc(S(=O)(=O)N2CCOCC2)cc1)c1ccc(CN2CCc3ccccc3C2)cc1 [Compound 48]
IC50 [1]: < 5 µM | IC50 [2]: > 25 µM | IC50 [3]: 5 to 25 µM

CCN(CC)S(=O)(=O)c1cccc(NC(=O)CNc2cccc(S(=O)(=O)N3CCOCC3)c2)c1 [Compound 49]
IC50 [1]: < 5 µM | IC50 [2]: > 25 µM | IC50 [3]: < 5 µM

Cc1ccc(C(=O)Nc2nc(-c3ccccn3)cs2)cc1S(=O)(=O)N1CCOCC1 [Compound 50]
IC50 [1]: < 5 µM | IC50 [2]: > 25 µM | IC50 [3]: > 25 µM

Cc1ccccc1C(=O)N1CCc2cc(-c3nc(NC(=O)Cc4cccc(OCCOCCOCCNC(=O)CCCC[C@@H]5SC[C@@H]6NC(=O)N[C@@H]65)c4)sc3C)ccc21 [Compound 240]
IC50 [1]: 5 to 25 µM | IC50 [3]: < 5 µM

Cc1ccccc1C(=O)N1CCc2cc(-c3nc(NC(=O)Cc4ccc(OCCOCCOCCNC(=O)CCCC[C@@H]5SC[C@@H]6NC(=O)N[C@@H]65)cc4)sc3C)ccc21 [Compound 241]
IC50 [1]: > 25 µM | IC50 [3]: 5 to 25 µM

Cc1ccc(C(=O)Nc2ccc(S(=O)(=O)N3CCOCC3)cc2)cc1 [compound 51]
IC50 [1]: 5 to 25 µM | IC50 [3]: > 25 µM

CC1(C)CC2CC(C)(CN2S(=O)(=O)c2ccc(C(=O)Nc3cccc(S(=O)(=O)N4CCOCC4)c3)cc2)C1 (centres unmarked) [compound 52]
IC50 [1]: < 5 µM | IC50 [3]: < 5 µM

CC1(C)CC2CC(C)(CN2S(=O)(=O)c2ccc(C(=O)Nc3ccc(Cl)cc3)cc2)C1 (centres unmarked) [compound 53]
IC50 [1]: < 5 µM | IC50 [3]: 5 to 25 µM

O=C(Nc1ccc(Cl)c(S(=O)(=O)N2CCOCC2)c1)c1ccc(S(=O)(=O)N2CCCCC2)cc1 [compound 54]
IC50 [1]: < 5 µM | IC50 [3]: < 5 µM

O=C(Nc1ccc(Cl)c(S(=O)(=O)N2CCOCC2)c1)c1ccc(S(=O)(=O)N2CCOCC2)cc1 [compound 55]
IC50 [1]: < 5 µM | IC50 [3]: < 5 µM

O=C(Nc1ccc(Cl)c(S(=O)(=O)N2CCOCC2)c1)c1ccccc1 [compound 62]
IC50 [1]: 5 to 25 µM | IC50 [3]: 5 to 25 µM

O=C(Nc1cccc(S(=O)(=O)N2CCOCC2)c1)c1ccc(CN2CCc3ccccc3C2)cc1 [compound 119]
IC50 [1]: 5 to 25 µM | IC50 [3]: > 25 µM

O=C(Nc1ccccc1)c1ccc(CN2CCc3ccccc3C2)cc1 [compound 143]
IC50 [1]: 5 to 25 µM | IC50 [3]: > 25 µM

CC(C)(C)OC(=O)N1CCN(S(=O)(=O)c2ccc(NC(=O)c3ccc(CN4CCc5ccccc5C4)cc3)cc2)CC1 [compound 144]
IC50 [1]: < 5 µM | IC50 [3]: < 5 µM

O=C(Nc1ccc(S(=O)(=O)N2CCCC2)cc1)c1ccc(CN2CCc3ccccc3C2)cc1 [compound 145]
IC50 [1]: < 5 µM | IC50 [3]: > 25 µM

CN1CCN(S(=O)(=O)c2ccc(NC(=O)c3ccc(CN4CCc5ccccc5C4)cc3)cc2)CC1 [compound 146]
IC50 [1]: < 5 µM | IC50 [3]: > 25 µM

O=C(Nc1ccc(C(=O)N2CCOCC2)cc1)c1ccc(CN2CCc3ccccc3C2)cc1 [compound 147]
IC50 [1]: 5 to 25 µM | IC50 [3]: > 25 µM

CN(C)[S+](=O)([O-])c1ccc(NC(=O)c2ccc(CN3CCc4ccccc4C3)cc2)cc1 [compound 148]
IC50 [1]: < 5 µM | IC50 [3]: > 25 µM

O=C(Nc1ccc(N2CCOCC2)cc1)c1ccc(CN2CCc3ccccc3C2)cc1 [compound 149]
IC50 [1]: < 5 µM | IC50 [3]: > 25 µM

O=C(Nc1ccc(S(=O)(=O)N2CCOCC2)cc1)c1ccc(N2CCc3ccccc3C2)cc1 [compound 152]
IC50 [1]: < 5 µM | IC50 [3]: < 5 µM

CCN(CC)S(=O)(=O)c1ccc(NC(=O)c2ccc(CN3CCc4ccccc4C3)cc2)cc1 [compound 153]
IC50 [1]: < 5 µM | IC50 [3]: < 5 µM

O=C(Nc1ccc(S(=O)(=O)N2CCNCC2)cc1)c1ccc(CN2CCc3ccccc3C2)cc1 [compound 154]
IC50 [1]: 5 to 25 µM | IC50 [3]: > 25 µM

CC1CN(S(=O)(=O)c2ccc(NC(=O)c3ccc(CN4CCc5ccccc5C4)cc3)cc2)CC(C)O1 (centres unmarked) [compound 155]
IC50 [1]: < 5 µM | IC50 [3]: < 5 µM

O=C(Nc1ccc([S+](=O)([O-])O)cc1)c1ccc(CN2CCc3ccccc3C2)cc1 [compound 156]
IC50 [1]: > 25 µM | IC50 [3]: > 25 µM

O=C(Nc1ccc(CN2CCOCC2)cc1)c1ccc(CN2CCc3ccccc3C2)cc1 [compound 163]
IC50 [1]: < 5 µM | IC50 [3]: > 25 µM

O=C(Nc1ccc(S(=O)(=O)N2CCOCC2c2ccccc2)cc1)c1ccc(CN2CCc3ccccc3C2)cc1 (centres unmarked) [compound 165]
IC50 [1]: < 5 µM | IC50 [3]: 5 to 25 µM

O=C(Nc1ccc(S(=O)(=O)N2CCOCC2)cc1)c1ccc(CCN2CCc3ccccc3C2)cc1 [compound 166]
IC50 [1]: < 5 µM | IC50 [3]: 5 to 25 µM

CN(C1CCOCC1)S(=O)(=O)c1ccc(NC(=O)c2ccc(CN3CCc4ccccc4C3)cc2)cc1 [compound 167]
IC50 [1]: < 5 µM | IC50 [3]: 5 to 25 µM

CN(Cc1ccccc1)Cc1ccc(C(=O)Nc2ccc(S(=O)(=O)N3CCOCC3)cc2)cc1 [compound 168]
IC50 [1]: < 5 µM | IC50 [3]: < 5 µM

CC1CN(S(=O)(=O)c2ccc(NC(=O)c3ccc(CN4CCc5ccccc5C4)cc3)cc2)CCO1 (centres unmarked) [compound 169]
IC50 [1]: < 5 µM | IC50 [3]: < 5 µM

O=C(Nc1ccc(S(=O)(=O)N2CCOC(c3ccccc3)C2)cc1)c1ccc(CN2CCc3ccccc3C2)cc1 (centres unmarked) [compound 171]
IC50 [1]: < 5 µM | IC50 [3]: > 25 µM

O=C(Nc1ccc(S(=O)(=O)N2CCOCC2)cc1)c1ccc(CN2CCCc3ccccc32)cc1 [compound 172]
IC50 [1]: < 5 µM | IC50 [3]: < 5 µM

CN(C1COC1)S(=O)(=O)c1ccc(NC(=O)c2ccc(CN3CCc4ccccc4C3)cc2)cc1 [compound 173]
IC50 [1]: < 5 µM | IC50 [3]: < 5 µM

COCCN(C)S(=O)(=O)c1ccc(NC(=O)c2ccc(CN3CCc4ccccc4C3)cc2)cc1 [compound 174]
IC50 [1]: < 5 µM | IC50 [3]: > 25 µM

O=C(Nc1ccc(S(=O)(=O)NC2CCOCC2)cc1)c1ccc(CN2CCc3ccccc3C2)cc1 [compound 176]
IC50 [1]: < 5 µM | IC50 [3]: 5 to 25 µM

O=C(Nc1ccc(OC(F)(F)F)cc1)c1ccc(CN2CCc3ccccc3C2)cc1 [compound 178]
IC50 [1]: < 5 µM | IC50 [3]: < 5 µM

O=C(Nc1ccc(S(=O)(=O)N2CCOCC2)cc1)c1ccc(CN2CCCCC2)cc1 [compound 179]
IC50 [1]: 5 to 25 µM | IC50 [3]: > 25 µM

O=C(Nc1ccc(S(=O)(=O)N2CCC(F)(F)CC2)cc1)c1ccc(CN2CCc3ccccc3C2)cc1 [compound 188]
IC50 [1]: < 5 µM | IC50 [3]: < 5 µM

CN(C(=O)c1ccc(CN2CCc3ccccc3C2)cc1)c1ccc(S(=O)(=O)N2CCOCC2)cc1 [compound 225]
IC50 [1]: 5 to 25 µM | IC50 [3]: > 25 µM

CC(c1ccc(C(=O)Nc2ccc(S(=O)(=O)N3CCOCC3)cc2)cc1)N1CCc2ccccc2C1 (centres unmarked) [compound 226]
IC50 [1]: < 5 µM | IC50 [3]: < 5 µM
